The source made the active and inactive calls. No cut-off for these calls is given here.
What was measured:
Canis familiaris [1] = test: Gastric antisecretory activity in Mongrel dog with heidenhain pouch assessed as inhibition of histamine-induced total acid output at 0.1 to 100 ug/kg, iv by titrimetric method relative to PGE1; format: functional, Canis lupus familiaris
Canis familiaris [2] = test: Gastric antisecretory activity in iv dosed Mongrel dog with heidenhain pouch assessed as inhibition of histamine-induced total acid output by titrimetric method; format: functional; conditions: Canis lupus familiaris, read-out: ID50 (the source's name)
Canis familiaris [3] = test: Gastric antisecretory activity in Mongrel dog with heidenhain pouch assessed as inhibition of histamine-induced total acid output at 30 ug/kg, iv by titrimetric method; format: functional, organism-based; conditions: Canis lupus familiaris

Row | SMILES | fold change (FC) (Canis familiaris [1]) | ED50 (Canis familiaris [2]) [µg/kg] | inhibition (Canis familiaris [3])
1 | CCCCCC(C)(O)C/C=C/[C@H]1[C@H](O)CC(=O)[C@@H]1CCCCCCC(=O)OC (mixture of isomers) | 19.9 | 0.31 | –
2 | CCCCC(O)C/C=C/[C@H]1[C@H](O)CC(=O)[C@@H]1C/C=C\CCCC(=O)OC (mixture of isomers) | 1.9 | 4.1 | –
3 | CCCCC(C)(O)C/C=C\[C@H]1[C@H](O)CC(=O)[C@@H]1CCCCCCC(=O)OC (mixture of isomers) | 0.17 | 39.8 | –
4 | CCCCC(O)C(C)(C)/C=C/[C@H]1[C@H](O)CC(=O)[C@@H]1CCCCCCC(=O)OC (mixture of isomers) | 0.05 | 140 | –
5 | CCCCC[C@H](O)/C=C/[C@H]1[C@H](O)CC(=O)[C@@H]1CCCCCCC(=O)OC | 2.3 | 3.8 | –
6 | CCCCC(C)(O)C/C=C/[C@H]1[C@H](O)CC(=O)[C@@H]1C/C=C\CCCC(=O)OC (mixture of isomers) | 24.9 | 0.3 | –
7 | CCCC(C)(C)C(O)C/C=C/[C@H]1[C@H](O)CC(=O)[C@@H]1CCCCCCC(=O)OC (mixture of isomers) | – | – | inactive
8 | CCCCC(C)(O)C/C=C/[C@H]1CCC(=O)[C@@H]1CCCCCCC(=O)O (mixture of isomers) | 1.5 | 4.3 | –
9 | CCCCC(C)(O)C/C=C/[C@H]1[C@H](O)CC(=O)[C@@H]1CCCCCCC(=O)OC (mixture of isomers) [MISOPROSTOL] | 47.8 | 0.16 | –
10 | CCCCC[C@H](O)/C=C/[C@H]1[C@H](O)CC(=O)[C@@H]1CCCCCCC(=O)O [ALPROSTADIL] | – | 6.7 | –
11 | CCCCC(O)(CC)C/C=C/[C@H]1[C@H](O)CC(=O)[C@@H]1CCCCCCC(=O)OC (mixture of isomers) | 0.21 | 27.8 | –
12 | CCCCC(C)(O)CCC[C@H]1[C@H](O)CC(=O)[C@@H]1CCCCCCC(=O)OC (mixture of isomers) | 0.98 | 5.9 | –
13 | CCCCC(C)(O)C/C=C/[C@H]1[C@@H](O)CC(=O)[C@@H]1CCCCCCC(=O)OC (mixture of isomers) | 0.21 | 16.9 | –
14 | CCCCC(O)C/C=C/[C@H]1[C@H](O)CC(=O)[C@@H]1CCCCCCC(=O)OC (mixture of isomers) | 0.7 | 5.4 | –

From ChEMBL document CHEMBL3244230, “Synthesis and gastric antisecretory properties of 15-deoxy-16-hydroxyprostaglandin E analogues” (1977)
